Measurements from the NIST ThermoML archive (doi:10.1021/je300584m).
Numbers after ± are expanded uncertainties.

Tests used:
[1] = Molar enthalpy of transition or fusion; conditions: Crystal; DSC

SMILES: O=C1c2ccccc2-c2ccccc21 [9(9H)-fluorenone]
- vapor or sublimation pressure (312.19 K, Crystal, Calculated from knudsen effusion weight loss): 8.9e-05 ± 2e-05 kPa
- vapor or sublimation pressure (314.21 K, Crystal, Calculated from knudsen effusion weight loss): 0.000115 ± 2e-05 kPa
- vapor or sublimation pressure (316.11 K, Crystal, Calculated from knudsen effusion weight loss): 0.000143 ± 2.1e-05 kPa
- vapor or sublimation pressure (318.18 K, Crystal, Calculated from knudsen effusion weight loss): 0.00018 ± 2.1e-05 kPa
- vapor or sublimation pressure (320.2 K, Crystal, Calculated from knudsen effusion weight loss): 0.000225 ± 2.2e-05 kPa
- vapor or sublimation pressure (322.11 K, Crystal, Calculated from knudsen effusion weight loss): 0.000273 ± 2.2e-05 kPa
- vapor or sublimation pressure (324.19 K, Crystal, Calculated from knudsen effusion weight loss): 0.000344 ± 2.3e-05 kPa
- vapor or sublimation pressure (326.19 K, Crystal, Calculated from knudsen effusion weight loss): 0.00043 ± 2.5e-05 kPa
- vapor or sublimation pressure (326.88 K, Crystal, Closed cell (Static) method): 0.00045 ± 0.00011 kPa
- vapor or sublimation pressure (327.85 K, Liquid, Closed cell (Static) method): 0.0008 ± 0.0001 kPa
- vapor or sublimation pressure (328.11 K, Crystal, Calculated from knudsen effusion weight loss): 0.000528 ± 2.7e-05 kPa
- vapor or sublimation pressure (328.32 K, Crystal, Closed cell (Static) method): 0.00053 ± 0.00011 kPa
- vapor or sublimation pressure (329.82 K, Liquid, Closed cell (Static) method): 0.00095 ± 0.00012 kPa
- vapor or sublimation pressure (329.83 K, Crystal, Closed cell (Static) method): 0.00061 ± 0.00011 kPa
- vapor or sublimation pressure (330.18 K, Crystal, Calculated from knudsen effusion weight loss): 0.000638 ± 3e-05 kPa
- vapor or sublimation pressure (331.3 K, Crystal, Closed cell (Static) method): 0.00072 ± 0.00012 kPa
- vapor or sublimation pressure (331.79 K, Liquid, Closed cell (Static) method): 0.00112 ± 0.00012 kPa
- vapor or sublimation pressure (332.18 K, Crystal, Calculated from knudsen effusion weight loss): 0.000796 ± 3.5e-05 kPa
- vapor or sublimation pressure (332.81 K, Crystal, Closed cell (Static) method): 0.00085 ± 0.00012 kPa
- vapor or sublimation pressure (333.8 K, Liquid, Closed cell (Static) method): 0.00133 ± 0.00012 kPa
- vapor or sublimation pressure (334.1 K, Crystal, Calculated from knudsen effusion weight loss): 0.000977 ± 4e-05 kPa
- vapor or sublimation pressure (334.29 K, Crystal, Closed cell (Static) method): 0.00098 ± 0.00012 kPa
- vapor or sublimation pressure (335.78 K, Crystal, Closed cell (Static) method): 0.00113 ± 0.00012 kPa
- vapor or sublimation pressure (335.78 K, Liquid, Closed cell (Static) method): 0.00159 ± 0.00013 kPa
- vapor or sublimation pressure (337.25 K, Crystal, Closed cell (Static) method): 0.00133 ± 0.00013 kPa
- vapor or sublimation pressure (337.74 K, Liquid, Closed cell (Static) method): 0.00185 ± 0.00014 kPa
- vapor or sublimation pressure (338.75 K, Crystal, Closed cell (Static) method): 0.00153 ± 0.00013 kPa
- vapor or sublimation pressure (339.72 K, Liquid, Closed cell (Static) method): 0.00217 ± 0.00014 kPa
- vapor or sublimation pressure (340.21 K, Crystal, Closed cell (Static) method): 0.00177 ± 0.00013 kPa
- vapor or sublimation pressure (341.69 K, Crystal, Closed cell (Static) method): 0.00205 ± 0.00014 kPa
- vapor or sublimation pressure (341.76 K, Liquid, Closed cell (Static) method): 0.00258 ± 0.00015 kPa
- vapor or sublimation pressure (343.19 K, Crystal, Closed cell (Static) method): 0.00235 ± 0.00015 kPa
- vapor or sublimation pressure (343.72 K, Liquid, Closed cell (Static) method): 0.00299 ± 0.00017 kPa
- vapor or sublimation pressure (344.68 K, Crystal, Closed cell (Static) method): 0.00272 ± 0.00016 kPa
- vapor or sublimation pressure (345.66 K, Liquid, Closed cell (Static) method): 0.00348 ± 0.00018 kPa
- vapor or sublimation pressure (346.2 K, Crystal, Closed cell (Static) method): 0.00311 ± 0.00017 kPa
- vapor or sublimation pressure (347.68 K, Crystal, Closed cell (Static) method): 0.00355 ± 0.00018 kPa
- vapor or sublimation pressure (347.68 K, Liquid, Closed cell (Static) method): 0.00409 ± 0.0002 kPa
- vapor or sublimation pressure (349.17 K, Crystal, Closed cell (Static) method): 0.00409 ± 0.0002 kPa
- vapor or sublimation pressure (349.66 K, Liquid, Closed cell (Static) method): 0.00468 ± 0.00022 kPa
- vapor or sublimation pressure (350.65 K, Crystal, Closed cell (Static) method): 0.00467 ± 0.00022 kPa
- vapor or sublimation pressure (351.63 K, Liquid, Closed cell (Static) method): 0.00545 ± 0.00025 kPa
- vapor or sublimation pressure (352.14 K, Crystal, Closed cell (Static) method): 0.00544 ± 0.00024 kPa
- vapor or sublimation pressure (353.63 K, Liquid, Closed cell (Static) method): 0.0063 ± 0.0003 kPa
- vapor or sublimation pressure (355.58 K, Liquid, Closed cell (Static) method): 0.00731 ± 0.00031 kPa
- vapor or sublimation pressure (357.59 K, Liquid, Closed cell (Static) method): 0.0084 ± 0.0004 kPa
- vapor or sublimation pressure (359.82 K, Liquid, Closed cell (Static) method): 0.00981 ± 0.0004 kPa
- vapor or sublimation pressure (361.57 K, Liquid, Closed cell (Static) method): 0.01112 ± 0.00045 kPa
- vapor or sublimation pressure (361.59 K, Liquid, Closed cell (Static) method): 0.01107 ± 0.00045 kPa
- vapor or sublimation pressure (363.79 K, Liquid, Closed cell (Static) method): 0.01285 ± 0.00052 kPa
- vapor or sublimation pressure (365.52 K, Liquid, Closed cell (Static) method): 0.01446 ± 0.00054 kPa
- vapor or sublimation pressure (367.74 K, Liquid, Closed cell (Static) method): 0.01661 ± 0.00057 kPa
- vapor or sublimation pressure (369.53 K, Liquid, Closed cell (Static) method): 0.01887 ± 0.00061 kPa
- vapor or sublimation pressure (371.72 K, Liquid, Closed cell (Static) method): 0.02159 ± 0.00065 kPa
- vapor or sublimation pressure (373.53 K, Liquid, Closed cell (Static) method): 0.02435 ± 0.00069 kPa
- vapor or sublimation pressure (375.67 K, Liquid, Closed cell (Static) method): 0.02768 ± 0.00074 kPa
- vapor or sublimation pressure (377.47 K, Liquid, Closed cell (Static) method): 0.03128 ± 0.0008 kPa
- vapor or sublimation pressure (379.65 K, Liquid, Closed cell (Static) method): 0.03529 ± 0.00086 kPa
- vapor or sublimation pressure (381.4 K, Liquid, Closed cell (Static) method): 0.03955 ± 0.00092 kPa
- vapor or sublimation pressure (383.6 K, Liquid, Closed cell (Static) method): 0.04451 ± 0.001 kPa
- vapor or sublimation pressure (385.47 K, Liquid, Closed cell (Static) method): 0.05021 ± 0.0011 kPa
- vapor or sublimation pressure (387.56 K, Liquid, Closed cell (Static) method): 0.05645 ± 0.0012 kPa
- vapor or sublimation pressure (391.51 K, Liquid, Closed cell (Static) method): 0.07082 ± 0.0014 kPa
- vapor or sublimation pressure (393.41 K, Liquid, Closed cell (Static) method): 0.07755 ± 0.0015 kPa
- vapor or sublimation pressure (395.41 K, Liquid, Closed cell (Static) method): 0.08762 ± 0.0017 kPa
- vapor or sublimation pressure (397.36 K, Liquid, Closed cell (Static) method): 0.09675 ± 0.0018 kPa
- vapor or sublimation pressure (399.35 K, Liquid, Closed cell (Static) method): 0.1089 ± 0.002 kPa
- vapor or sublimation pressure (401.32 K, Liquid, Closed cell (Static) method): 0.1202 ± 0.0022 kPa
- vapor or sublimation pressure (403.3 K, Liquid, Closed cell (Static) method): 0.1342 ± 0.0021 kPa
- vapor or sublimation pressure (406.25 K, Liquid, Closed cell (Static) method): 0.1558 ± 0.0023 kPa
- vapor or sublimation pressure (407.26 K, Liquid, Closed cell (Static) method): 0.1646 ± 0.0023 kPa
- vapor or sublimation pressure (409.18 K, Liquid, Closed cell (Static) method): 0.1808 ± 0.0025 kPa
- vapor or sublimation pressure (411.21 K, Liquid, Closed cell (Static) method): 0.2014 ± 0.0026 kPa
- vapor or sublimation pressure (413.17 K, Liquid, Closed cell (Static) method): 0.2206 ± 0.0028 kPa
- vapor or sublimation pressure (415.17 K, Liquid, Closed cell (Static) method): 0.244 ± 0.003 kPa
- vapor or sublimation pressure (417.11 K, Liquid, Closed cell (Static) method): 0.2679 ± 0.0032 kPa
- vapor or sublimation pressure (419.13 K, Liquid, Closed cell (Static) method): 0.2948 ± 0.0035 kPa
- vapor or sublimation pressure (421.06 K, Liquid, Closed cell (Static) method): 0.3242 ± 0.0037 kPa
- vapor or sublimation pressure (423.04 K, Liquid, Closed cell (Static) method): 0.355 ± 0.004 kPa
- vapor or sublimation pressure (425 K, Liquid, Closed cell (Static) method): 0.3873 ± 0.0043 kPa
- vapor or sublimation pressure (427.02 K, Liquid, Closed cell (Static) method): 0.4288 ± 0.0046 kPa
- vapor or sublimation pressure (428.95 K, Liquid, Closed cell (Static) method): 0.467 ± 0.005 kPa
- vapor or sublimation pressure (430.77 K, Liquid, Closed cell (Static) method): 0.511 ± 0.005 kPa
- vapor or sublimation pressure (432.92 K, Liquid, Closed cell (Static) method): 0.5574 ± 0.0057 kPa
- vapor or sublimation pressure (434.9 K, Liquid, Closed cell (Static) method): 0.604 ± 0.006 kPa
- vapor or sublimation pressure (436.86 K, Liquid, Closed cell (Static) method): 0.6602 ± 0.0066 kPa
- vapor or sublimation pressure (438.87 K, Liquid, Closed cell (Static) method): 0.7204 ± 0.0071 kPa
- vapor or sublimation pressure (440.85 K, Liquid, Closed cell (Static) method): 0.7844 ± 0.0077 kPa
- Normal melting temperature (Crystal, DTA): 83.01 ± 0.56 °C
- Molar enthalpy of transition or fusion [1]: 17.6 ± 1.5 kJ/mol
